Test results reported in patent publication US10906888B2, “Pyrimidine carboxamides as inhibitors of Vanin-1 enzyme” (Pfizer Inc., priority 2016, dated 2021).

These compounds were tested against human vanin-1 (Homo sapiens (Human), UniProt O95497) (assay: Human Vanin-1 Enzyme Assay 1). Conditions: 25 pM human vanin-1, 50 uM pantetheine 7-amino-4-trifluoromethylcoumarin substrate.
Assay type: biochemical
Description: Human Vanin-1Enzyme Assay 1.
The in vitro assay measures enzymatic cleavage of the fluorescently-labeled vanin substrate, pantetheine 7-amino-4-trifluoromethylcoumarin, by human vanin-1.
The vanin-1 protein was prepared in-house from a construct expressing the extracellular domain of human vanin-1 (GenBank ID NM_004666) preceded N-terminally by the honey bee melittin signal peptide, a GSG linker sequence, a His6× tag and a FLAG tag. The secreted, soluble enzyme was purified from the conditioned medium from a CHO cell line stably expressing the resulting protein. Enzyme purification was performed through sequential Ni NTA and size-exclusion chromatography steps.
Intermediate concentrations were prepared by diluting in DMSO in a four-fold series for a total of 11 data points.
To begin the assay 100 nL was transferred from the compound plate to the assay plate. Next, 15 μL of the vanin-1 working solution were transferred to the assay plate. The inhibitor and enzyme were incubated at room temperature for 30 minutes. The enzyme reaction was then initiated by the addition of 5 μL of 200 μM pantetheine 7-amino-4-trifluoromethylcoumarin prepared in assay buffer. […] The final concentration of DMSO was 0.5%.

human vanin-1, sequence (O95497 22-491): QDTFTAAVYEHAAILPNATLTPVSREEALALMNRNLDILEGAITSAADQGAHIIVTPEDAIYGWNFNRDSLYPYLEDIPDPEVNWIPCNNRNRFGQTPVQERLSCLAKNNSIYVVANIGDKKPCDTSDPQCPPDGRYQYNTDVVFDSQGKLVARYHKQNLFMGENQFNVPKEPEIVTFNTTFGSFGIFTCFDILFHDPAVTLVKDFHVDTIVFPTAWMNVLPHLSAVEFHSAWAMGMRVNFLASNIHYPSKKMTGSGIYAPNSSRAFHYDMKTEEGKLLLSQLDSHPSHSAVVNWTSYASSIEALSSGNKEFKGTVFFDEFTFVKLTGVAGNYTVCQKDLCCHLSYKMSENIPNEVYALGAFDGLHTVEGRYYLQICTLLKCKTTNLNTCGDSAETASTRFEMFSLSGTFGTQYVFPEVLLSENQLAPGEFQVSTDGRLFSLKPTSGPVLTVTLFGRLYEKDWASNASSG

Point of comparison: `C[C@@H]1CCCN1C(=O)c1cnc(NC2(c3cncnc3)CC2)nc1` [Example 76], IC50 0.122 µM. Against it:
- O=C(c1cnc(NCc2cccnc2)nc1)N1C[C@H]2CCC[C@@H](O)[C@H]2C1 (relative stereo) [Example 3] — 72-fold lower, 0.00169 µM
- O=C(c1cnc(NC2(c3cncnc3)CC2)nc1)N1C[C@@H]2CCCC[C@]2(CO)C1 (relative stereo) [Example 61] — 49-fold lower, 0.00251 µM
- C[C@H]1CN(C(=O)c2cnc(NC3(c4cncnc4)CC3)nc2)C[C@]1(C)CO (relative stereo) [Example 62] — 31-fold lower, 0.00392 µM
- O=C(c1cnc(NC2(c3cncnc3)CC2)nc1)N1CCC(C(F)(F)F)C1 (single isomer, unassigned) [Example 194] — 6-fold lower, 0.0202 µM
- N#CC1CCCN(C(=O)c2cnc(NC3(c4cncnc4)CC3)nc2)C1 (single isomer, unassigned) [Example 197] — 23-fold lower, 0.00522 µM
- CS(=O)(=O)C1CCCN(C(=O)c2cnc(NC3(c4cncnc4)CC3)nc2)C1 (single isomer, unassigned) [Example 199] — 9.7-fold higher, 1.18 µM
- CCC1(CO)CCN(C(=O)c2cnc(NC3(c4cncnc4)CC3)nc2)C1 (single isomer, unassigned) [Example 201] — 210-fold lower, 0.000582 µM
- CCC1(CO)CCN(C(=O)c2cnc(NC3(c4cncnc4)CC3)nc2)C1 (single isomer, unassigned) [Example 202] — 8.5-fold lower, 0.0143 µM
- O=C(c1cnc(NCc2cccnc2)nc1)N1CCC2(CCOCC2)C1 [Example 1] — 93-fold lower, 0.00131 µM
- O=C(c1cnc(NCc2cccnc2)nc1)N1CC2(CCOCC2)C1 [Example 2] — 92-fold lower, 0.00133 µM
- CCC1(CO)CCN(C(=O)c2cnc(NCc3cccnc3)nc2)C1 (stereo not drawn) [Example 4] — 14-fold lower, 0.00858 µM
- O=C(c1cnc(NCc2cccnc2)nc1)N1CC(O)(C2CC2)C1 [Example 5] — 7.6-fold lower, 0.016 µM
- C[C@H]1CN(C(=O)c2cnc(NCc3cccnc3)nc2)C[C@@H]1CO [Example 6] — 6.8-fold lower, 0.0179 µM
- O=C(c1cnc(NCc2cccnc2)nc1)N1CCC(C(F)(F)F)C1 (stereo not drawn) [Example 7] — 6.8-fold lower, 0.0179 µM
- O=C(c1cnc(NCc2cccnc2)nc1)N1CCn2ccnc2C1 [Example 8] — 3.3-fold lower, 0.0371 µM
- CC1(O)CCN(C(=O)c2cnc(NCc3cccnc3)nc2)CC1 [Example 9] — 2.5-fold lower, 0.0481 µM
- CCOC1CCN(C(=O)c2cnc(NCc3cccnc3)nc2)C1 (stereo not drawn) [Example 10] — 1.6-fold lower, 0.0759 µM
- O=C(c1cnc(NCc2cccnc2)nc1)N1CCC(CO)C1 (stereo not drawn) [Example 11] — within 1.5-fold, 0.0817 µM
- CO[C@@H]1[C@@H]2CC[C@H]1CN(C(=O)c1cnc(NCc3cccnc3)nc1)C2 [Example 12] — within 1.5-fold, 0.0941 µM
- NC(=O)C1CCCN(C(=O)c2cnc(NCc3cccnc3)nc2)C1 (stereo not drawn) [Example 13] — within 1.5-fold, 0.101 µM
- N#CCC1CCCCN1C(=O)c1cnc(NCc2cccnc2)nc1 (stereo not drawn) [Example 14] — within 1.5-fold, 0.156 µM
- CC1(CO)CCN(C(=O)c2cnc(NCc3cccnc3)nc2)CC1 [Example 15] — 1.8-fold higher, 0.22 µM
- O=C(c1cnc(NCc2cccnc2)nc1)N1CC(O)C1 [Example 16] — 2.6-fold higher, 0.323 µM
- O=C(c1cnc(NCc2cccnc2)nc1)N1CCC(F)(CO)CC1 [Example 17] — 2.7-fold higher, 0.328 µM
- O=C(c1cnc(NCc2cccnc2)nc1)N1C[C@@H]2[C@@H](CO)[C@@H]2C1 [Example 18] — 3.2-fold higher, 0.385 µM
- O=C(c1cnc(NCc2cccnc2)nc1)N1Cc2ccccc2C1 [Example 19] — 3.3-fold higher, 0.407 µM
- O=C(c1cnc(NCc2cccnc2)nc1)N1CCOCC(O)C1 (stereo not drawn) [Example 20] — 3.7-fold higher, 0.453 µM
- O=C(c1cnc(NCc2cccnc2)nc1)N1CCC(O)CC1 [Example 21] — 4.3-fold higher, 0.528 µM
- O=C(c1cnc(NCc2cccnc2)nc1)N1CCCC(O)C1 (stereo not drawn) [Example 22] — 4.6-fold higher, 0.559 µM
- CC(=O)NC1CCCN(C(=O)c2cnc(NCc3cccnc3)nc2)C1 (stereo not drawn) [Example 23] — 5-fold higher, 0.613 µM
- CC(=O)N1CCN(C(=O)c2cnc(NCc3cccnc3)nc2)CC1 [Example 24] — 6.1-fold higher, 0.749 µM
- O=C(c1cnc(NCc2cccnc2)nc1)N1CCC(O)C1 (stereo not drawn) [Example 25] — 8.5-fold higher, 1.04 µM
- CC1(O)CCCN(C(=O)c2cnc(NCc3cccnc3)nc2)C1 (stereo not drawn) [Example 26] — 10-fold higher, 1.23 µM
- O=C(c1cnc(NCc2cccnc2)nc1)N1CC2CCC(CC2)C1 [Example 27] — 11-fold higher, 1.37 µM
- O=C(c1cnc(NCc2cccnc2)nc1)N1[C@@H]2CC[C@H]1C[C@@H](O)C2 [Example 28] — 13-fold higher, 1.55 µM
- NC(=O)C1CCN(C(=O)c2cnc(NCc3cccnc3)nc2)CC1 [Example 29] — 16-fold higher, 1.92 µM
- NC(=O)CC1CCN(C(=O)c2cnc(NCc3cccnc3)nc2)CC1 [Example 30] — 18-fold higher, 2.17 µM
- O=C(c1cnc(NCc2cccnc2)nc1)N1CCCC2(COC2)C1 [Example 31] — 25-fold higher, 3.09 µM
- NC(=O)[C@@H]1CCCN1C(=O)c1cnc(NCc2cccnc2)nc1 [Example 32] — 160-fold higher, 20 µM
- O=C(c1cnc(NC2(c3cncnc3)CC2)nc1)N1C[C@H]2CC[C@@H](C1)O2 [Example 33] — within 1.5-fold, 0.108 µM
- O=C(c1cnc(NC2(c3cncnc3)CC2)nc1)N1CCC2(CCO2)CC1 [Example 34] — 2.6-fold lower, 0.0472 µM
- O=C(c1cnc(NC2(c3cncnc3)CC2)nc1)N1CCN2C[C@@H](F)C[C@H]2C1 [Example 35] — 23-fold lower, 0.00542 µM
- CCC1COC(=O)N1C1CCN(C(=O)c2cnc(NC3(c4cncnc4)CC3)nc2)CC1 (stereo not drawn) [Example 36] — 8.2-fold higher, 1 µM
- CCC1(CC)CCN(C(=O)c2cnc(NC3(c4cncnc4)CC3)nc2)C1 [Example 37] — 240-fold lower, 0.000504 µM
- CC1COCCN(C(=O)c2cnc(NC3(c4cncnc4)CC3)nc2)C1 (stereo not drawn) [Example 38] — 1.9-fold lower, 0.0626 µM
- CC1CCCN(C(=O)c2cnc(NC3(c4cncnc4)CC3)nc2)C1 (stereo not drawn) [Example 39] — 13-fold lower, 0.00944 µM
- CC(C)[C@H]1C[C@@H](O)CN(C(=O)c2cnc(NC3(c4cncnc4)CC3)nc2)C1 [Example 40] — 4.5-fold lower, 0.0269 µM
- O=C(c1cnc(NC2(c3cncnc3)CC2)nc1)N1CCN2CCCCCC2C1 (stereo not drawn) [Example 41] — 2.7-fold lower, 0.045 µM
- O=C(c1cnc(NC2(c3cncnc3)CC2)nc1)N1CCCOCC1 [Example 42] — 3.5-fold lower, 0.0351 µM
- O=C(c1cnc(NC2(c3cncnc3)CC2)nc1)N1CCC(c2cc[nH]n2)C1 (stereo not drawn) [Example 43] — 90-fold lower, 0.00135 µM
- C[C@@H]1CN(C(=O)c2cnc(NC3(c4cncnc4)CC3)nc2)C[C@H](C)C1O (stereo partly drawn) [Example 44] — 19-fold higher, 2.27 µM
- O=C(c1cnc(NC2(c3cncnc3)CC2)nc1)N1CCCC[C@H]1CO [Example 45] — 15-fold higher, 1.85 µM
- CCC1(C)CCN(C(=O)c2cnc(NC3(c4cncnc4)CC3)nc2)CC1 [Example 46] — 19-fold lower, 0.00629 µM
- C[C@H]1CCCN1C(=O)c1cnc(NC2(c3cncnc3)CC2)nc1 [Example 47] — 4.1-fold lower, 0.0296 µM
- O=C(c1cnc(NC2(c3cncnc3)CC2)nc1)N1C[C@@H](F)C[C@@H]1CO [Example 48] — 160-fold higher, 20 µM
- O=C(c1cnc(NC2(c3cncnc3)CC2)nc1)N1CCC2(CCCC2)CC1 [Example 49] — 16-fold lower, 0.0075 µM
- O=C(c1cnc(NC2(c3cncnc3)CC2)nc1)N1CCC2(CCCCO2)CC1 [Example 50] — 6.1-fold lower, 0.0199 µM
- CO[C@H]1CCN(C(=O)c2cnc(NC3(c4cncnc4)CC3)nc2)C1 [Example 51] — within 1.5-fold, 0.0975 µM
- O=C(c1cnc(NC2(c3cncnc3)CC2)nc1)N1CCOC2(CCCC2)C1 [Example 52] — 2-fold lower, 0.0603 µM
- O=C(c1cnc(NC2(c3cncnc3)CC2)nc1)N1C[C@@H](CO)[C@H](C(F)(F)F)C1 [Example 53] — 10-fold lower, 0.0122 µM
- CC1CC2(CCN(C(=O)c3cnc(NC4(c5cncnc5)CC4)nc3)C2)CC(C)O1 (stereo not drawn) [Example 54] — 430-fold lower, 0.000283 µM
- C[C@H]1COCCN1C(=O)c1cnc(NC2(c3cncnc3)CC2)nc1 [Example 55] — 21-fold higher, 2.52 µM
- O=C(c1cnc(NC2(c3cncnc3)CC2)nc1)N1CCC2(CCCO2)CC1 [Example 56] — 4.9-fold lower, 0.0249 µM
- CN1CC2(CCN(C(=O)c3cnc(NC4(c5cncnc5)CC4)nc3)CC2)OC1=O [Example 57] — 5-fold higher, 0.611 µM
- C[C@@H]1CN(C(=O)c2cnc(NC3(c4cncnc4)CC3)nc2)[C@H](C)CO1 [Example 58] — within 1.5-fold, 0.116 µM
- O=C(c1cnc(NC2(c3cncnc3)CC2)nc1)N1CCC(C(O)C(F)(F)F)CC1 (stereo not drawn) [Example 60] — 23-fold higher, 2.85 µM
- O=C(c1cnc(NC2(c3cncnc3)CC2)nc1)N1CCC(C(F)(F)F)CC1 [Example 63] — 3.5-fold higher, 0.421 µM
- O=C(c1cnc(NC2(c3cncnc3)CC2)nc1)N1CC2C(C1)C2C(F)(F)F (stereo not drawn) [Example 64] — within 1.5-fold, 0.1 µM
- Cc1cc(C2CCN(C(=O)c3cnc(NC4(c5cncnc5)CC4)nc3)C2)[nH]n1 (stereo not drawn) [Example 65] — 67-fold lower, 0.00182 µM
- O=C(c1cnc(NC2(c3cncnc3)CC2)nc1)N1CCC[C@H]1CO [Example 66] — 1.9-fold higher, 0.231 µM
- C[C@@H]1CN(C(=O)c2cnc(NC3(c4cncnc4)CC3)nc2)C[C@H](C)O1 [Example 67] — 35-fold higher, 4.24 µM
- O=C(c1cnc(NC2(c3cncnc3)CC2)nc1)N1CCC(F)CC1 [Example 68] — 15-fold lower, 0.00813 µM
- O=C(c1cnc(NC2(c3cncnc3)CC2)nc1)N1CC2CCCC2C1 (stereo not drawn) [Example 69] — 66-fold lower, 0.00185 µM
- COCC1CCCN(C(=O)c2cnc(NC3(c4cncnc4)CC3)nc2)C1 (stereo not drawn) [Example 71] — 23-fold lower, 0.00541 µM
- CC(C)[C@H]1C[C@H](O)CN(C(=O)c2cnc(NC3(c4cncnc4)CC3)nc2)C1 [Example 72] — within 1.5-fold, 0.148 µM
- O=C(c1cnc(NC2(c3cncnc3)CC2)nc1)N1CCCC1C(F)(F)F (stereo not drawn) [Example 73] — 6.8-fold higher, 0.829 µM
- O=C(c1cnc(NC2(c3cncnc3)CC2)nc1)N1CCCC(C(F)(F)F)C1 (stereo not drawn) [Example 74] — 34-fold lower, 0.00362 µM
- CN1CC2(COCCN(C(=O)c3cnc(NC4(c5cncnc5)CC4)nc3)C2)OC1=O (stereo not drawn) [Example 75] — 8.9-fold higher, 1.08 µM
- O=C(c1cnc(NC2(c3cncnc3)CC2)nc1)N1CCC[C@@]2(CCCC[C@@H]2O)C1 [Example 77] — 3.9-fold lower, 0.0313 µM
- CC(C)(O)C1CCN(C(=O)c2cnc(NC3(c4cncnc4)CC3)nc2)CC1 [Example 78] — 13-fold higher, 1.6 µM
